Values quoted from earlier work in patent US20060193883A1, “Pesticidal treatment materials” (priority 1999, published 2006).

Tested on: house dust mite populations
Settings: in vivo

Row | Compound | effectiveness as long-term acaricides against house dust mite populations
1 | CC1(C)[C@H](C(=O)O[C@H](C#N)c2cccc(Oc3ccccc3)c2)[C@@H]1C=C(Br)Br [deltamethrin] | highly effective
2 | CC1(C)C(C=C(Cl)Cl)C1C(=O)OCc1cccc(Oc2ccccc2)c1 (centres unmarked) [permethrin] | highly effective
